{
  "source": "ChEMBL document CHEMBL1129522",
  "about": "“Inhibitors of acyl-CoA:cholesterol O-acyltransferase. 17. Structure-activity relationships of several series of compounds derived from N-chlorosulfonyl isocyanate” (J Med Chem, 1996)",
  "key": {"[1]": {"target": "T1, Sterol O-acyltransferase 1 (Rattus norvegicus, UniProt O70536)", "T1 sequence (O70536 whole entry)": "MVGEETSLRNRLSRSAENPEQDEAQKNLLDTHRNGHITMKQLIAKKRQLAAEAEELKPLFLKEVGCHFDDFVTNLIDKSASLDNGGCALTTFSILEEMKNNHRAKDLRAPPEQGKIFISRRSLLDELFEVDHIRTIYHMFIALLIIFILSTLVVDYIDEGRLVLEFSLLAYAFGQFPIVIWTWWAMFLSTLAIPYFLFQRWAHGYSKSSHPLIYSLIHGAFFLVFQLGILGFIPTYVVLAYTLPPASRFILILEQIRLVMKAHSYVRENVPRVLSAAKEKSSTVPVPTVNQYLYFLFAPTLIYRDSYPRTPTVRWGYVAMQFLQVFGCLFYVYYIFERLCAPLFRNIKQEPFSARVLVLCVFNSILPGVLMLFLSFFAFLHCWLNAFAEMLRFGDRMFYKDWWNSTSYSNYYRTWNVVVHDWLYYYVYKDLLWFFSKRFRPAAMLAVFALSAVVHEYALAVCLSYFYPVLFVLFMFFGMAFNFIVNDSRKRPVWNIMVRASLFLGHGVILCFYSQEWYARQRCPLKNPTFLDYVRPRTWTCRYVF", "assay": "In vitro inhibitory activity against acyl coenzyme A:cholesterol acyltransferase 1 in microsomes of rat liver"}, "[2]": {"target": "T2, Sterol O-acyltransferase 1 (Rattus norvegicus) (UniProt O70536)", "T2 sequence (whole entry)": "T1 sequence (O70536 whole entry)", "assay": "Acute in vivo activity was measured by the total plasma cholesterol concentration levels(TC) at dose 3 mg/kg", "type": "functional, organism-based", "set-up": "dose 3 mg/kg"}, "Rattus norvegicus": {"test_system": "Rattus norvegicus", "assay": "Acute in vivo activity measured by total plasma cholesterol concentration levels (TC) at 30 mg/kg dose", "type": "functional"}, "[3]": {"target": "T2, Sterol O-acyltransferase 1 (Rattus norvegicus)", "assay": "Chronic in vivo activity was measured by the total cholesterol concentration levels in cholesterol fed rats", "type": "functional, organism-based"}},
  "note": "Several values for one entry are separate records, joined by “and”; a condition that tells them apart may be missing. Identical values can stand only once.",
  "data": [
    {"smiles": "CCCCCCOS(=O)(=O)NC(=O)Oc1c(C(C)C)cccc1C(C)C", "values": [
      {"measurement": "IC50", "setting": "[1]", "value": 40, "unit": "µM"},
      {"measurement": "Delta TC", "setting": "[2]", "value": -18, "unit": "%"},
      {"measurement": "Delta TC", "setting": "Rattus norvegicus", "value": -52, "unit": "%"}
    ]},
    {"smiles": "CCCCCCCCCCCCOS(=O)(=O)NC(=O)Nc1c(C(C)C)cccc1C(C)C", "values": [
      {"measurement": "Delta TC", "setting": "[3]", "value": "-55% and -52%"},
      {"measurement": "Delta TC", "setting": "[2]", "value": "-34% and -53%"}
    ]},
    {"smiles": "CC(C)c1cccc(C(C)C)c1OC(=O)NS(=O)(=O)Oc1c(C(C)(C)C)cccc1C(C)(C)C", "values": [
      {"measurement": "IC50", "setting": "[1]", "value": 50, "unit": "µM"},
      {"measurement": "Delta TC", "setting": "[2]", "value": -46, "unit": "%"},
      {"measurement": "Delta TC", "setting": "Rattus norvegicus", "value": -55, "unit": "%"}
    ]},
    {"smiles": "Cc1cccc(C)c1OC(=O)NS(=O)(=O)Oc1c(C(C)C)cccc1C(C)C", "values": [
      {"measurement": "IC50", "setting": "[1]", "value": "> 50", "unit": "µM"},
      {"measurement": "Delta TC", "setting": "Rattus norvegicus", "value": -37, "unit": "%"}
    ]},
    {"smiles": "CCCCCCOS(=O)(=O)NC(=O)Oc1c(C(C)(C)C)cc(C)cc1C(C)(C)C", "values": [
      {"measurement": "IC50", "setting": "[1]", "value": 95, "unit": "µM"},
      {"measurement": "Delta TC", "setting": "[2]", "value": -14, "unit": "%"},
      {"measurement": "Delta TC", "setting": "Rattus norvegicus", "value": -56, "unit": "%"}
    ]},
    {"smiles": "CC(C)c1cccc(C(C)C)c1OC(=O)N(C)S(=O)(=O)Oc1c(C(C)C)cccc1C(C)C", "values": [
      {"measurement": "IC50", "setting": "[1]", "value": 50, "unit": "µM"},
      {"measurement": "Delta TC", "setting": "[2]", "value": -18, "unit": "%"},
      {"measurement": "Delta TC", "setting": "Rattus norvegicus", "value": -64, "unit": "%"}
    ]},
    {"smiles": "CCOC(=O)[N-]S(=O)(=O)Oc1c(C(C)C)cccc1C(C)C.[Na+]", "values": [
      {"measurement": "IC50", "setting": "[1]", "value": "> 50", "unit": "µM"},
      {"measurement": "Delta TC", "setting": "Rattus norvegicus", "value": 17, "unit": "%"}
    ]},
    {"smiles": "COc1cc(C(C)(C)C)c(OC(=O)NS(=O)(=O)Oc2c(C(C)C)cccc2C(C)C)c(C(C)(C)C)c1", "values": [
      {"measurement": "Delta TC", "setting": "[3]", "value": "-62% and -76%"},
      {"measurement": "Delta TC", "setting": "[2]", "value": "-42% and -58%"}
    ]},
    {"smiles": "CC(C)c1cccc(C(C)C)c1OC(=O)NS(=O)(=O)Oc1c(F)cccc1F", "values": [
      {"measurement": "IC50", "setting": "[1]", "value": 38, "unit": "µM"},
      {"measurement": "Delta TC", "setting": "Rattus norvegicus", "value": 9, "unit": "%"}
    ]},
    {"smiles": "CC(C)c1cccc(C(C)C)c1OS(=O)(=O)NC(=O)OC1[C@@H](C(C)C)CCC[C@H]1C(C)C", "note": "(stereo partly specified)", "values": [
      {"measurement": "IC50", "setting": "[1]", "value": 3.6, "unit": "µM"},
      {"measurement": "Delta TC", "setting": "[2]", "value": -29, "unit": "%"},
      {"measurement": "Delta TC", "setting": "Rattus norvegicus", "value": -70, "unit": "%"}
    ]},
    {"smiles": "CC(C)c1cccc(C(C)C)c1OS(=O)(=O)NC(=O)Oc1ccc(F)cc1F", "values": [
      {"measurement": "IC50", "setting": "[1]", "value": "> 50", "unit": "µM"},
      {"measurement": "Delta TC", "setting": "Rattus norvegicus", "value": -5, "unit": "%"}
    ]},
    {"smiles": "CCOC(=O)NS(=O)(=O)Oc1c(C(C)C)cccc1C(C)C", "values": [
      {"measurement": "IC50", "setting": "[1]", "value": "> 50", "unit": "µM"},
      {"measurement": "Delta TC", "setting": "Rattus norvegicus", "value": -14, "unit": "%"}
    ]},
    {"smiles": "CCCCCCCCCCCCOC(=O)NS(=O)(=O)Oc1c(C(C)C)cccc1C(C)C", "values": [
      {"measurement": "IC50", "setting": "[1]", "value": 13, "unit": "µM"},
      {"measurement": "Delta TC", "setting": "[2]", "value": 1, "unit": "%"},
      {"measurement": "Delta TC", "setting": "Rattus norvegicus", "value": -62, "unit": "%"}
    ]},
    {"smiles": "CC(C)c1cccc(C(C)C)c1OS(=O)(=O)NC(=O)Oc1c(F)cccc1F", "values": [
      {"measurement": "IC50", "setting": "[1]", "value": 65, "unit": "µM"},
      {"measurement": "Delta TC", "setting": "Rattus norvegicus", "value": -27, "unit": "%"}
    ]},
    {"smiles": "CC(C)c1cccc(C(C)C)c1OC(=O)NS(=O)(=O)Oc1c(C(C)C)cc(O)cc1C(C)C", "values": [
      {"measurement": "IC50", "setting": "[1]", "value": "> 50", "unit": "µM"},
      {"measurement": "Delta TC", "setting": "Rattus norvegicus", "value": -15, "unit": "%"}
    ]},
    {"smiles": "CC(C)c1cccc(C(C)C)c1OS(=O)(=O)NC(=O)OC1C2CC3CC(C2)CC1C3", "note": "(stereo unspecified)", "values": [
      {"measurement": "IC50", "setting": "[1]", "value": 23, "unit": "µM"},
      {"measurement": "Delta TC", "setting": "Rattus norvegicus", "value": -36, "unit": "%"}
    ]},
    {"smiles": "CC(C)c1cccc(C(C)C)c1OS(=O)(=O)NC(=O)Oc1ccc(Cl)cc1", "values": [
      {"measurement": "IC50", "setting": "[1]", "value": 97, "unit": "µM"},
      {"measurement": "Delta TC", "setting": "Rattus norvegicus", "value": -8, "unit": "%"}
    ]},
    {"smiles": "COc1cc(C(C)(C)C)c(OC(=O)[N-]S(=O)(=O)Oc2c(C(C)C)cccc2C(C)C)c(C(C)(C)C)c1.[Na+]", "values": [
      {"measurement": "IC50", "setting": "[1]", "value": 10, "unit": "µM"},
      {"measurement": "Delta TC", "setting": "Rattus norvegicus", "value": -60, "unit": "%"}
    ]},
    {"smiles": "CCCCCCC(C)OS(=O)(=O)NC(=O)Nc1c(C(C)C)cccc1C(C)C", "note": "(stereo unspecified)", "values": [
      {"measurement": "IC50", "setting": "[1]", "value": 35, "unit": "µM"},
      {"measurement": "Delta TC", "setting": "[2]", "value": 10, "unit": "%"},
      {"measurement": "Delta TC", "setting": "Rattus norvegicus", "value": -51, "unit": "%"}
    ]},
    {"smiles": "CCCCCCCCCCCCCCCCOS(=O)(=O)NC(=O)Oc1c(C(C)C)cccc1C(C)C", "values": [
      {"measurement": "IC50", "setting": "[1]", "value": 10.3, "unit": "µM"},
      {"measurement": "Delta TC", "setting": "[2]", "value": -42, "unit": "%"},
      {"measurement": "Delta TC", "setting": "Rattus norvegicus", "value": -60, "unit": "%"}
    ]},
    {"smiles": "CC(C)c1cccc(C(C)C)c1OS(=O)(=O)NC(=O)Oc1ccc(F)cc1", "values": [
      {"measurement": "IC50", "setting": "[1]", "value": "> 50", "unit": "µM"},
      {"measurement": "Delta TC", "setting": "Rattus norvegicus", "value": -21, "unit": "%"}
    ]},
    {"smiles": "CCCCCCCCCCCCOS(=O)(=O)[N-]C(=O)Nc1c(C(C)C)cccc1C(C)C.[Na+]", "values": [
      {"measurement": "IC50", "setting": "[1]", "value": 5, "unit": "µM"},
      {"measurement": "Delta TC", "setting": "Rattus norvegicus", "value": -60, "unit": "%"}
    ]},
    {"smiles": "CC(C)c1cccc(C(C)C)c1OC(=O)NS(=O)(=O)Oc1ccc(F)cc1F", "values": [
      {"measurement": "IC50", "setting": "[1]", "value": "> 50", "unit": "µM"},
      {"measurement": "Delta TC", "setting": "Rattus norvegicus", "value": -11, "unit": "%"}
    ]},
    {"smiles": "CC(C)(C)c1cccc(C(C)(C)C)c1OC(=O)NS(=O)(=O)Oc1c(C(C)(C)C)cccc1C(C)(C)C", "values": [
      {"measurement": "IC50", "setting": "[1]", "value": 30, "unit": "µM"},
      {"measurement": "Delta TC", "setting": "Rattus norvegicus", "value": -18, "unit": "%"}
    ]},
    {"smiles": "Cc1cccc(C)c1OS(=O)(=O)NC(=O)Oc1c(C(C)C)cccc1C(C)C", "values": [
      {"measurement": "IC50", "setting": "[1]", "value": "> 50", "unit": "µM"},
      {"measurement": "Delta TC", "setting": "[2]", "value": -37, "unit": "%"},
      {"measurement": "Delta TC", "setting": "Rattus norvegicus", "value": -58, "unit": "%"}
    ]},
    {"smiles": "CCCCCCCCCCCCOS(=O)(=O)NC(=O)Sc1c(C(C)C)cccc1C(C)C", "values": [
      {"measurement": "IC50", "setting": "[1]", "value": 48, "unit": "µM"},
      {"measurement": "Delta TC", "setting": "Rattus norvegicus", "value": -9, "unit": "%"}
    ]},
    {"smiles": "CC(C)c1cccc(C(C)C)c1OS(=O)(=O)NC(=O)Oc1cccnc1", "values": [
      {"measurement": "IC50", "setting": "[1]", "value": "> 50", "unit": "µM"},
      {"measurement": "Delta TC", "setting": "Rattus norvegicus", "value": -2, "unit": "%"}
    ]},
    {"smiles": "Cc1cc(C(C)(C)C)c(OC(=O)NS(=O)(=O)Oc2ccccc2)c(C(C)(C)C)c1", "values": [
      {"measurement": "IC50", "setting": "[1]", "value": 90, "unit": "µM"},
      {"measurement": "Delta TC", "setting": "[2]", "value": -15, "unit": "%"},
      {"measurement": "Delta TC", "setting": "Rattus norvegicus", "value": -65, "unit": "%"}
    ]}
  ]
}
